In ChEMBL document CHEMBL3886714, “Substituted 4-pyridones and their use as inhibitors of neutrophil elastase activity” (2016):

Molecular target: T1, Neutrophil elastase (Homo sapiens, UniProt P08246)
T1 sequence (P08246 whole entry): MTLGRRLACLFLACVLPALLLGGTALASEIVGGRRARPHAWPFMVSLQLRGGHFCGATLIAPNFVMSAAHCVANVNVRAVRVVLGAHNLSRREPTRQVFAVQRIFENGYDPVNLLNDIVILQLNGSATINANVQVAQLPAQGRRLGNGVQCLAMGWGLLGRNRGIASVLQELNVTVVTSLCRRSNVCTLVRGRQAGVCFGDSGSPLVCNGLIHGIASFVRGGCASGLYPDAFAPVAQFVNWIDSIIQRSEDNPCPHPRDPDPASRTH
Assay: Human Neutrophil Elastase Assay: Compound buffer: 100 mM Tris, 500 mM NaCl, adjusted to pH 7.5; Assay buffer: 100 mM Tris, 500 mM NaCl, adjusted to pH 7.5, containing 0.01% BSA. Test compounds were prediluted in DMSO and subsequently in compound buffer (5% DMSO final). […] After inactivation of the enzyme, fluorescence intensities were measured at 380 nm excitation and 460 nm emission wavelengths.

IC50 [nM]	SMILES
28	Cc1c(-c2cccc(C(F)(F)F)c2)c(=O)c(C(=O)NCc2ccc(S(C)(=O)=O)s2)cn1C(C)C
27	Cc1c(-c2cccc(C(F)F)c2)c(=O)c(C(=O)NCc2ccc(S(C)(=O)=O)cc2)cn1C1CCOC1 (configuration not stated)
